Experiment: xn = mol fraction of the nth substance listed
Details: Fluid (supercritical or subcritical phases), Buoyancy - hydrostatic balance with magnetic suspension - one sinker

[Ar] [argon] + O=C=O
Details	mass density [kg/m3]
298.12 K, 30871 kPa, x1 = 0.99	502.471
298.17 K, 30944 kPa, x1 = 0.95	514.698
298.18 K, 28957 kPa, x1 = 0.99	476.725
298.19 K, 10975 kPa, x1 = 0.99	187.045
298.19 K, 12973 kPa, x1 = 0.99	222.038
298.19 K, 14969 kPa, x1 = 0.99	256.759
298.19 K, 16969 kPa, x1 = 0.99	291.075
298.19 K, 18969 kPa, x1 = 0.99	324.674
298.19 K, 26962 kPa, x1 = 0.99	448.747
298.2 K, 20967 kPa, x1 = 0.99	357.351
298.2 K, 22966 kPa, x1 = 0.99	389.003
298.2 K, 24964 kPa, x1 = 0.99	419.491
298.22 K, 10976 kPa, x1 = 0.95	190.182
298.23 K, 12976 kPa, x1 = 0.95	226.201
298.23 K, 14974 kPa, x1 = 0.95	261.987
298.23 K, 16969 kPa, x1 = 0.95	297.274
298.23 K, 18970 kPa, x1 = 0.95	331.923
298.23 K, 20969 kPa, x1 = 0.95	365.576
298.23 K, 22968 kPa, x1 = 0.95	398.09
298.23 K, 24967 kPa, x1 = 0.95	429.349
298.23 K, 26965 kPa, x1 = 0.95	459.226
298.23 K, 28963 kPa, x1 = 0.95	487.701
323.2 K, 10978 kPa, x1 = 0.99	168.714
323.2 K, 24965 kPa, x1 = 0.99	375.34
323.2 K, 30955 kPa, x1 = 0.99	452.317
323.21 K, 14970 kPa, x1 = 0.99	230.302
323.21 K, 16971 kPa, x1 = 0.99	260.652
323.21 K, 18969 kPa, x1 = 0.99	290.39
323.21 K, 20969 kPa, x1 = 0.99	319.49
323.21 K, 22966 kPa, x1 = 0.99	347.807
323.21 K, 26962 kPa, x1 = 0.99	401.924
323.21 K, 28960 kPa, x1 = 0.99	427.589
323.22 K, 12973 kPa, x1 = 0.99	199.627
323.24 K, 24968 kPa, x1 = 0.95	382.594
323.24 K, 30958 kPa, x1 = 0.95	460.997
323.25 K, 16970 kPa, x1 = 0.95	265.1
323.25 K, 22969 kPa, x1 = 0.95	354.46
323.25 K, 28963 kPa, x1 = 0.95	435.856
323.26 K, 10976 kPa, x1 = 0.95	170.993
323.26 K, 12974 kPa, x1 = 0.95	202.641
323.26 K, 14973 kPa, x1 = 0.95	234.077
323.27 K, 18969 kPa, x1 = 0.95	295.579
323.27 K, 20973 kPa, x1 = 0.95	325.456
323.27 K, 26965 kPa, x1 = 0.95	409.68
348.21 K, 14972 kPa, x1 = 0.99	209.619
348.21 K, 16970 kPa, x1 = 0.99	236.897
348.21 K, 18972 kPa, x1 = 0.99	263.764
348.22 K, 20972 kPa, x1 = 0.99	290.057
348.22 K, 30956 kPa, x1 = 0.99	411.615
348.23 K, 28960 kPa, x1 = 0.99	388.704
348.24 K, 26963 kPa, x1 = 0.99	365.062
348.25 K, 10977 kPa, x1 = 0.99	154.064
348.25 K, 12974 kPa, x1 = 0.99	181.967
348.25 K, 24966 kPa, x1 = 0.99	340.708
348.25 K, 30958 kPa, x1 = 0.95	418.385
348.26 K, 22968 kPa, x1 = 0.99	315.675
348.28 K, 18972 kPa, x1 = 0.95	267.685
348.28 K, 20972 kPa, x1 = 0.95	294.53
348.28 K, 28962 kPa, x1 = 0.95	395.094
348.29 K, 22970 kPa, x1 = 0.95	320.729
348.29 K, 26966 kPa, x1 = 0.95	371.043
348.3 K, 10979 kPa, x1 = 0.95	155.9
348.3 K, 12976 kPa, x1 = 0.95	184.3
348.3 K, 14972 kPa, x1 = 0.95	212.437
348.3 K, 16971 kPa, x1 = 0.95	240.266
348.31 K, 24969 kPa, x1 = 0.95	346.237
373.22 K, 16970 kPa, x1 = 0.99	217.712
373.22 K, 18968 kPa, x1 = 0.99	242.204
373.22 K, 30957 kPa, x1 = 0.99	378.472
373.23 K, 22970 kPa, x1 = 0.99	289.853
373.23 K, 24965 kPa, x1 = 0.99	312.835
373.23 K, 26964 kPa, x1 = 0.99	335.305
373.24 K, 10977 kPa, x1 = 0.95	143.58
373.24 K, 14972 kPa, x1 = 0.99	192.822
373.24 K, 20969 kPa, x1 = 0.99	266.255
373.24 K, 28960 kPa, x1 = 0.99	357.169
373.25 K, 10978 kPa, x1 = 0.99	142.11
373.25 K, 12977 kPa, x1 = 0.99	167.627
373.28 K, 18969 kPa, x1 = 0.95	245.312
373.29 K, 16972 kPa, x1 = 0.95	220.418
373.29 K, 28963 kPa, x1 = 0.95	362.242
373.29 K, 30959 kPa, x1 = 0.95	383.847
373.3 K, 12975 kPa, x1 = 0.95	169.447
373.31 K, 14971 kPa, x1 = 0.95	195.043
373.31 K, 20969 kPa, x1 = 0.95	269.779
373.31 K, 26966 kPa, x1 = 0.95	340.003
373.32 K, 22966 kPa, x1 = 0.95	293.716
373.32 K, 24968 kPa, x1 = 0.95	317.167
398.26 K, 12977 kPa, x1 = 0.99	155.613
398.28 K, 10979 kPa, x1 = 0.99	132.065
398.28 K, 20968 kPa, x1 = 0.99	246.59
398.28 K, 30957 kPa, x1 = 0.99	350.842
398.29 K, 26962 kPa, x1 = 0.99	310.557
398.29 K, 28962 kPa, x1 = 0.99	330.96
398.3 K, 14970 kPa, x1 = 0.99	178.803
398.3 K, 18971 kPa, x1 = 0.99	224.388
398.3 K, 22969 kPa, x1 = 0.99	268.392
398.3 K, 24967 kPa, x1 = 0.99	289.714
398.31 K, 16969 kPa, x1 = 0.99	201.75
398.31 K, 26966 kPa, x1 = 0.95	314.455
398.31 K, 28963 kPa, x1 = 0.95	335.112
398.33 K, 14977 kPa, x1 = 0.95	180.735
398.33 K, 24965 kPa, x1 = 0.95	293.233
398.33 K, 30959 kPa, x1 = 0.95	355.238
398.34 K, 22971 kPa, x1 = 0.95	271.617
398.35 K, 18973 kPa, x1 = 0.95	226.932
398.35 K, 20972 kPa, x1 = 0.95	249.488
398.36 K, 12973 kPa, x1 = 0.95	157.068
398.36 K, 16970 kPa, x1 = 0.95	203.95
398.37 K, 10980 kPa, x1 = 0.95	133.275
423.22 K, 10980 kPa, x1 = 0.99	123.515
423.22 K, 16967 kPa, x1 = 0.99	188.325
423.23 K, 14969 kPa, x1 = 0.99	166.982
423.24 K, 12971 kPa, x1 = 0.99	145.339
423.28 K, 18967 kPa, x1 = 0.99	209.329
423.3 K, 20973 kPa, x1 = 0.99	230.071
423.3 K, 22965 kPa, x1 = 0.99	250.298
423.3 K, 30956 kPa, x1 = 0.99	327.48
423.31 K, 12974 kPa, x1 = 0.95	146.65
423.32 K, 24968 kPa, x1 = 0.95	273.195
423.33 K, 10981 kPa, x1 = 0.95	124.535
423.33 K, 14975 kPa, x1 = 0.95	168.571
423.33 K, 24964 kPa, x1 = 0.99	270.201
423.33 K, 26968 kPa, x1 = 0.95	292.962
423.33 K, 28959 kPa, x1 = 0.99	308.785
423.34 K, 18970 kPa, x1 = 0.95	211.466
423.34 K, 26961 kPa, x1 = 0.99	289.685
423.34 K, 28966 kPa, x1 = 0.95	312.296
423.35 K, 16970 kPa, x1 = 0.95	190.146
423.35 K, 20971 kPa, x1 = 0.95	232.422
423.35 K, 30960 kPa, x1 = 0.95	331.165
423.36 K, 22968 kPa, x1 = 0.95	252.983

From the NIST ThermoML archive (doi:10.1016/j.jct.2015.07.014)
